Measurements reported in ChEMBL document CHEMBL4842364 (J Med Chem, 2021).
≈ marks a conversion by molar mass, not a printed value.

Assays:
[1] = tested on: A-427; experiment: Antiproliferative activity against human A-427 cells assessed as reduction in cell viability after 3 days by CellTiter-Glo assay; type: functional, cell-based; settings: A-427, 72 h
[2] = molecular target: Serine/threonine-protein kinase PLK3 (Homo sapiens, UniProt Q9H4B4); experiment: Inhibition of PLK3 (unknown origin) at 1 uM relative to control
Chain of Serine/threonine-protein kinase PLK3 (Q9H4B4 whole entry, looked up): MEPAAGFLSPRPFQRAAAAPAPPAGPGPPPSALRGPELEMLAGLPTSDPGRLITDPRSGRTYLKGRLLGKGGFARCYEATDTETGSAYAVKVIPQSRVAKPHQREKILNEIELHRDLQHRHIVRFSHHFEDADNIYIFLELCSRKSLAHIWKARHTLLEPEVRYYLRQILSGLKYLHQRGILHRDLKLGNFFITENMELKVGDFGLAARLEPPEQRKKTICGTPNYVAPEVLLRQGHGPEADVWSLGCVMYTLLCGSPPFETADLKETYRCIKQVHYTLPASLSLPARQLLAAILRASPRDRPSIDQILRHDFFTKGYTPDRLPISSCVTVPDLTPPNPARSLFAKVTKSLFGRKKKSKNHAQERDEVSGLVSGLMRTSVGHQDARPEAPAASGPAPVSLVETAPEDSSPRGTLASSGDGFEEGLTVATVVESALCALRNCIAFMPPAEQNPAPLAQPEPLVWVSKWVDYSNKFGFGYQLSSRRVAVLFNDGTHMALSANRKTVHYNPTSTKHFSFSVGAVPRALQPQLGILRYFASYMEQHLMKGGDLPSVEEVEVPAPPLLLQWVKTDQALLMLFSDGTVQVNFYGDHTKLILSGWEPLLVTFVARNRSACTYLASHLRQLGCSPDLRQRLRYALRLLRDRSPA

[3] = Thermodynamic solubility of compound; type: physicochemical; settings: read-out: Therm_solubility
[4] = tested on: Epidermal growth factor receptor (Homo sapiens), P00533 [UNDEFINED MUTATION]; experiment: Inhibition of EGFR d747-749/A750P mutant (unknown origin) at 1 uM relative to control
Chain of Epidermal growth factor receptor (Homo sapiens), P00533 [UNDEFINED MUTATION] (P00533 whole entry, looked up, stated change not applied): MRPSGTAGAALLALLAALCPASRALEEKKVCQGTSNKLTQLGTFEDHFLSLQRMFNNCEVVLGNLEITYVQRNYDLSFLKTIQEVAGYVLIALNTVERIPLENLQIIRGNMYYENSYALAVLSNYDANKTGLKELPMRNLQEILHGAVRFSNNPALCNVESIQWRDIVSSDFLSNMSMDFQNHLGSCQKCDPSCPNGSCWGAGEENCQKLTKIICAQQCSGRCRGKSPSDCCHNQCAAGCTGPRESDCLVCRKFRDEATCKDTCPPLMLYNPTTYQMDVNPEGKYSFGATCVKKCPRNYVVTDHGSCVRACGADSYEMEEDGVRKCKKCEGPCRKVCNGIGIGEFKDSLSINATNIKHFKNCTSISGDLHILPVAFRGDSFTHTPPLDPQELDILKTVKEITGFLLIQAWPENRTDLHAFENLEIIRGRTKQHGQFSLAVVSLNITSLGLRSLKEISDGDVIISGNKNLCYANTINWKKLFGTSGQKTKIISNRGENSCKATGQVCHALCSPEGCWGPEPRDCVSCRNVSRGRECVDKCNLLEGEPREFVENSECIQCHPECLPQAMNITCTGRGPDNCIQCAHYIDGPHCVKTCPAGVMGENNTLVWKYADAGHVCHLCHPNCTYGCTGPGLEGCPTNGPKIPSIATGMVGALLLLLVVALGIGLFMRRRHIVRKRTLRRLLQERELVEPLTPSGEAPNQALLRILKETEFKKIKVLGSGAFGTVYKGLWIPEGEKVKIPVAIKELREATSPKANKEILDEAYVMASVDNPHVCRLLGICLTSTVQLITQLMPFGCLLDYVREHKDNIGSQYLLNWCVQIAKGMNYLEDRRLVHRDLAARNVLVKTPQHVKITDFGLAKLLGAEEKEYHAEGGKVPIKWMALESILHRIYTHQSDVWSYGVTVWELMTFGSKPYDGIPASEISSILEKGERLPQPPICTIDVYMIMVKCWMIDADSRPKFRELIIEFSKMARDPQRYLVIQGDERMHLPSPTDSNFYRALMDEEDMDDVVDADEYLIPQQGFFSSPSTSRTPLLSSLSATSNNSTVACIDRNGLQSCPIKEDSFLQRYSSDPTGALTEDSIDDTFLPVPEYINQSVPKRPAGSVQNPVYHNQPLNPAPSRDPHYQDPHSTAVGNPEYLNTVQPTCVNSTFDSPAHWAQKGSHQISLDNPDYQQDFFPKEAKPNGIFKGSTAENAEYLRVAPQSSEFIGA

[5] = molecular target: T1, Serine/threonine-protein kinase PLK2 (Homo sapiens, UniProt Q9NYY3); experiment: Inhibition of PLK2 (unknown origin)
Target sequence in this assay (Q9NYY3 whole entry): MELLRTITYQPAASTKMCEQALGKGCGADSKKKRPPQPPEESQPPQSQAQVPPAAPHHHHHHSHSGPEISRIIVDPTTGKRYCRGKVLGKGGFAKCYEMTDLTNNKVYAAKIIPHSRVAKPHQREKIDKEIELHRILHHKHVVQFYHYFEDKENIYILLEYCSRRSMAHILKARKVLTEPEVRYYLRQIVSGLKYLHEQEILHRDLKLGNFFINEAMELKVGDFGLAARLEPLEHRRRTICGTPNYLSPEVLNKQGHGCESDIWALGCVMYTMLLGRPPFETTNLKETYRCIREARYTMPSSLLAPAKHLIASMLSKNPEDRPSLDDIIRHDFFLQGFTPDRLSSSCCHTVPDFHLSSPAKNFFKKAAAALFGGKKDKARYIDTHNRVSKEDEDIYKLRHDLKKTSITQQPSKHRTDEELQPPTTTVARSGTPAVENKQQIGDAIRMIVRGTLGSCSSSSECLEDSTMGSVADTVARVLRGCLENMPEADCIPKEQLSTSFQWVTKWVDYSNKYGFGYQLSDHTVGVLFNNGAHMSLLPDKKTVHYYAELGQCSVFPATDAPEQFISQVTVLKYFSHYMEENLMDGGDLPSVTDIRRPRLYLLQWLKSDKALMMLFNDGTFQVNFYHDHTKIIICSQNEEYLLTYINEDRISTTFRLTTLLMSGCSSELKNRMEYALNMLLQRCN

[6] = molecular target: T1, Serine/threonine-protein kinase PLK2; experiment: Inhibition of PLK2 (unknown origin) at 1 uM relative to control
Target sequence in this assay (Q9NYY3 whole entry, looked up): as the sequence (Q9NYY3 whole entry) above

[7] = AUC in Beagle dog at 10 mg/kg, po measured upto 24 hrs by LC-MS/MS analysis; type: ADME, organism-based, Canis lupus familiaris; set-up: route oral, dose 10 mg/kg, time <=24; settings: in vivo
[8] = Intrinsic clearance in human microsomes; type: ADME, Microsome
[9] = Octanol/buffer distribution coefficient, logD of the compound at pH 7.4; type: physicochemical
[10] = molecular target: T2, Serine/threonine-protein kinase Nek1 (Homo sapiens) (UniProt Q96PY6); experiment: Inhibition of NEK1 (unknown origin) at 1 uM relative to control
T2 sequence (whole entry): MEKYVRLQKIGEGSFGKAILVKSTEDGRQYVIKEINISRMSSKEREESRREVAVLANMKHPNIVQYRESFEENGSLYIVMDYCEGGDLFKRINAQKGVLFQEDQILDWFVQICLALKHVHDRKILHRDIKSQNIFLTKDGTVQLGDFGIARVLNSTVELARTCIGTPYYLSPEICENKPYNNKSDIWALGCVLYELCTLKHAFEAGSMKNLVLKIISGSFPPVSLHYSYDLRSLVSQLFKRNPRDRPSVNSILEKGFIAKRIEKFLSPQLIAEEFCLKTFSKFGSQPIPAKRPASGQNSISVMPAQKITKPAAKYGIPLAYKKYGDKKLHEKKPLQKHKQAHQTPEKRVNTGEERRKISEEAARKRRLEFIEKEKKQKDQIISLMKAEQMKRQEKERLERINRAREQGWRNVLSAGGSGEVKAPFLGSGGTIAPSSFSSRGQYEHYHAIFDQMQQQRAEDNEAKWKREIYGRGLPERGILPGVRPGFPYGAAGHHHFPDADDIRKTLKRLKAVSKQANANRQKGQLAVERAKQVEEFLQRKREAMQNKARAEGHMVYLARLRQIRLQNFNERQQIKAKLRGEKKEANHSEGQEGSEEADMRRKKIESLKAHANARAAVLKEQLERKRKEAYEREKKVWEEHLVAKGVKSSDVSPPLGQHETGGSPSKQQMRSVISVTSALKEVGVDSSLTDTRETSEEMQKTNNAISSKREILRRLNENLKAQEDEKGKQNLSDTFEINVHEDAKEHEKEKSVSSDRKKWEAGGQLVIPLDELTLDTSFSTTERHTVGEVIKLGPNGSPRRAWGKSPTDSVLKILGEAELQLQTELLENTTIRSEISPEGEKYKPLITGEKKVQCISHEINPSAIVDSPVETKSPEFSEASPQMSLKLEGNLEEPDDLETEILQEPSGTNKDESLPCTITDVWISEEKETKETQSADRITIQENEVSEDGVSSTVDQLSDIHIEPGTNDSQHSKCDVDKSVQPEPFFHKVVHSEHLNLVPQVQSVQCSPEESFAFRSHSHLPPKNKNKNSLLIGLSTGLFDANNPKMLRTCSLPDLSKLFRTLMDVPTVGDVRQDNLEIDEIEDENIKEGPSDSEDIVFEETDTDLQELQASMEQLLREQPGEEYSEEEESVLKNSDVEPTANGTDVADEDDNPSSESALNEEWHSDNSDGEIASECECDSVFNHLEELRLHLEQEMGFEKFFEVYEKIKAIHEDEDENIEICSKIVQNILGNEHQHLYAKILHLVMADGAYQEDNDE

[11] = Intrinsic clearance in mouse microsomes; type: ADME, Microsome
[12] = molecular target: Epidermal growth factor receptor (Homo sapiens, UniProt P00533, 747-749DEL/A750P); experiment: Inhibition of EGFR d747-749/A750P mutant (unknown origin)
Chain of Epidermal growth factor receptor (P00533 whole entry, looked up, stated change not applied): as the sequence (P00533 whole entry, looked up, stated change not applied) above

[13] = molecular target: Wee1-like protein kinase (Homo sapiens, UniProt P30291)
Chain of Wee1-like protein kinase (P30291 whole entry): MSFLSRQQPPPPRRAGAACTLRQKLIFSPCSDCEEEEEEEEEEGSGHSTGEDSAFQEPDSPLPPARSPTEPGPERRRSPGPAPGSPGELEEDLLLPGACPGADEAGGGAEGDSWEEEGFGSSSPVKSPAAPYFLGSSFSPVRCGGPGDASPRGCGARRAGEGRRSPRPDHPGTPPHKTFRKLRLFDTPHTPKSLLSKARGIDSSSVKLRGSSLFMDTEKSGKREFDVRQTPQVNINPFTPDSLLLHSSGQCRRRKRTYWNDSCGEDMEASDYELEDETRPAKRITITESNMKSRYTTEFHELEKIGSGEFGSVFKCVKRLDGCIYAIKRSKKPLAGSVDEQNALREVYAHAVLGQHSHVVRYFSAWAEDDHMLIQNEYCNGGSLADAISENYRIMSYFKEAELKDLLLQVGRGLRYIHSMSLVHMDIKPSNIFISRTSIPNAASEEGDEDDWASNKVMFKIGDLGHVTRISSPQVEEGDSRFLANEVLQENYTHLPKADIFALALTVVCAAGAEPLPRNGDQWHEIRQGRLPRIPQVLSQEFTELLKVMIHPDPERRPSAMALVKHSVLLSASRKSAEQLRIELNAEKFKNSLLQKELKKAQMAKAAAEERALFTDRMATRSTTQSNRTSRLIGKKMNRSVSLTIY
Description: Displacement of Alexa Fluor labelled kinase tracer178 from WEE1 (unknown origin) incubated for 60 mins by FRET assay

[14] = molecular target: Serine/threonine-protein kinase PLK1 (Homo sapiens, UniProt P53350); experiment: Inhibition of PLK1 (unknown origin) at 1 uM relative to control
Chain of Serine/threonine-protein kinase PLK1 (P53350 whole entry): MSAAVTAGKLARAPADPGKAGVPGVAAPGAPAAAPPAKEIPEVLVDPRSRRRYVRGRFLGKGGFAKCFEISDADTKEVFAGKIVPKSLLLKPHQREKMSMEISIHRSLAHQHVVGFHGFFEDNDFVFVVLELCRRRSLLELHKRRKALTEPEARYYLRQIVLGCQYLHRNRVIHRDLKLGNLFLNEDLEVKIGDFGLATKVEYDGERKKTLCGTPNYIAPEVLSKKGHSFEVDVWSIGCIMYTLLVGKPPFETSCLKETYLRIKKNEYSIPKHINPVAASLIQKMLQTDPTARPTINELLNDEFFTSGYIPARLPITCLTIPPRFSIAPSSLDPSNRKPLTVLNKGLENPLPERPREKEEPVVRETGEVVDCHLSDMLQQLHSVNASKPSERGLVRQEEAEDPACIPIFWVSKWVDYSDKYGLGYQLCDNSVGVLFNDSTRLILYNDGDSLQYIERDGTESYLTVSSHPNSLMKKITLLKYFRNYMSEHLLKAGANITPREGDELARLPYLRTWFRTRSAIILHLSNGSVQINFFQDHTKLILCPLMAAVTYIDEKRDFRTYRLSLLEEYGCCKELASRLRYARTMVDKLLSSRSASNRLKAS

[15] = tested on: Epidermal growth factor receptor (Homo sapiens), P00533 [UNDEFINED MUTATION]; experiment: Inhibition of EGFR d746-750 mutant (unknown origin) at 1 uM relative to control
[16] = Clearance in Beagle dog at 3 mg/kg, iv measured upto 24 hrs by LC-MS/MS analysis; type: ADME, organism-based, Canis lupus familiaris; settings: in vivo
[17] = Volume of distribution at steady state in Beagle dog at 3 mg/kg, iv measured upto 24 hrs by LC-MS/MS analysis; type: ADME, organism-based, Canis lupus familiaris; settings: in vivo, read-out: Vdss
[18] = molecular target: Tyrosine-protein kinase Lck (Homo sapiens) (UniProt P06239); experiment: Inhibition of LCK (unknown origin) at 1 uM relative to control
[19] = Plasma protein binding in human; type: ADME, cell-free; settings: read-out: PPB (converted)
[20] = Permeability of the compound across apical to basolateral side in human Caco-2 cells; type: ADME, cell-based; settings: read-out: permeability

- inhibition [2]: > 90%
- solubility thermodynamic [3]: 2130 µM (≈ 1120 µg/mL)
- inhibition [4]: > 90%
- IC50 [5]: 40 nM
- inhibition [6]: > 90%
- AUC at 24 h [7]: 9.7 µM·h
- CLint scaled [8]: 40 mL/min/kg
- logD [9]: 2.4
- inhibition [10]: 75%
- CLint scaled [11]: 74 mL/min/kg
- IC50 [12]: 60 nM
- IC50 [13]: 3.9 nM
- inhibition [14]: 75%
- inhibition [15]: 75%
- clearance [16]: 46 mL/min/kg
- Vd [17]: 4.4 L/kg
- inhibition [18]: 75%
- fraction unbound [19]: 0.34
- Papp A→B [20]: 3.6 ×10⁻⁶ cm/s
SMILES: C=CCn1c(=O)c2cnc(Nc3ccc(N4CCN(C)CC4)cc3)nc2n1-c1ccc2c(n1)C(O)(CC)CC2 (racemic)
- IC50 [1]: 75 nM
